One block for each sequence: values may come before it.
Molecular target: T1, MyD88^TIR (Homo sapiens, UniProt Q99836)
T1 construct: MyD88 (residues 148–296); 6xHis; made in house; host or cells: E. coli BL21 (DE3)
Test: T‐Surf phage library (P8 and P3) selection against MyD88^TIR, four rounds, NGS read counts
Format: binding
Conditions: for Population: 4th round of selection against MyD88 TIR, share of NGS reads; for P8_MyD88 Rank (after) / P8_MyD88 Rank (before): P8 library; for P3_MyD88 Rank (after) / P3_MyD88 Rank (before): P3 library
In short: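 P8 and P3 T‐Surf libraries panned against plate-coated TIR domains (5 µg mL^−1), 1 h binding at RT, acid elution and TG1/helper-phage amplification per round. After four rounds, pools were PCR-barcoded and sequenced (NovaSeq, 100 bp paired-end, Phred ≥30); peptides ranked by read counts.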

[1] = P8_MyD88 pool: P8 T-Surf phage library
[2] = P8_MyD88: rank by count after grouping
[3] = P8_MyD88: rank by count before grouping
[4] = P3_MyD88: rank by count after grouping
[5] = P3_MyD88: rank by count before grouping
[6] = selection against MyD88, rank by count after grouping
[7] = selection against MyD88, rank by count before grouping
[8] = 4R selection against MyD88, rank after grouping
[9] = 4R selection against MyD88, rank before grouping
[10] = selection against MyD88 TIR, rank by count after grouping
[11] = selection against MyD88 TIR, rank by count before grouping
[12] = selection against MyD88, rank after grouping
[13] = selection against MyD88, rank before grouping
[14] = P8_MyD88: rank by NGS read count after grouping
[15] = P8_MyD88: rank by NGS read count before grouping
[16] = P3_MyD88 pool: P3 T-Surf phage library

T1 sequence (Q99836 148-296): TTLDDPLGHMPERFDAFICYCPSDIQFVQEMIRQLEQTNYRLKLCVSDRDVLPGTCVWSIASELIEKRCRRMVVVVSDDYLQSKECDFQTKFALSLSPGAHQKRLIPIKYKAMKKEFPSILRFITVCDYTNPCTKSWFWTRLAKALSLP

Population [1]: 0.00617%
Sequence: WALNELLQILHARELF

Rank (after) [2]: 428 | Rank (before) [3]: 2840
Sequence: DPQDLDRFYERLLSLL

Rank (after) [4]: 461 | Rank (before) [5]: 2919
Sequence: ISYRQGRWRLLELSKK

P8_MyD88 Rank (after) [6]: 694 | P8_MyD88 Rank (before) [7]: 2043
Sequence: YLRADDSCSWEKLRYA

P8_MyD88 Rank (after) [8]: 657 | P8_MyD88 Rank (before) [9]: 2618
Sequence: DPRDLAWFYEVLLSRF

P8_MyD88 Rank (after) [10]: 282 | P8_MyD88 Rank (before) [11]: 612
Sequence: HFAFSSWALDELANIL

Rank (after) [2]: 403 | Rank (before) [3]: 1189
Sequence: LEANDSLFWDRLYY

P3_MyD88 Rank (after) [8]: 597 | P3_MyD88 Rank (before) [9]: 3255
Sequence: SSLREGLWRLLELGKK

P3_MyD88 Rank (after) [6]: 709 | P3_MyD88 Rank (before) [7]: 2288
Sequence: LVAHEISKKLKIFATM

Rank (after) [2]: 458 | Rank (before) [3]: 3506
Sequence: PQELEWFYERPVSLML

Rank (after) [2]: 480 | Rank (before) [3]: 1518
Sequence: WALDLQWFYERLVSLI

P8_MyD88 Rank (after) [12]: 487 | P8_MyD88 Rank (before) [13]: 3892
Sequence: KFFLFFMILAFSMNR

P3_MyD88 Rank (after) [10]: 237 | P3_MyD88 Rank (before) [11]: 3559
Sequence: NNLFNELVSKNIRTLM

Rank (after) [14]: 954 | Rank (before) [15]: 3417
Sequence: PQAPEWSYERLVSLIL

Rank (after) [2]: 116 | Rank (before) [3]: 124 | Population [1]: 0.0173%
Sequence: VSSFISYLIAAFNRQG

P8_MyD88 Rank (after) [12]: 523 | P8_MyD88 Rank (before) [13]: 3329
Sequence: LGYHWFDWVYFVGIED

P8_MyD88 Rank (after) [10]: 254 | P8_MyD88 Rank (before) [11]: 448
Sequence: AWIWGWREALVYIGGI

P8_MyD88 Rank (after) [10]: 196 | P8_MyD88 Rank (before) [11]: 269
Sequence: QSAWALNQLLQIIDWH

Rank (after) [2]: 172 | Rank (before) [3]: 203
Sequence: DLQDVGWFLSKLSQHI

Population [16]: 0.00291%
Sequence: ISFREGLWRLLELSKK

P3_MyD88 Rank (after) [8]: 628 | P3_MyD88 Rank (before) [9]: 3431
Sequence: NELVHVWSSKANTWW

Rank (after) [4]: 385 | Rank (before) [5]: 2529
Sequence: LKGGDSYFWSKQPYAL

Rank (after) [14]: 993 | Rank (before) [15]: 2369
Sequence: DFLKWDNEAIMIKKIA

Rank (after) [2]: 148 | Rank (before) [3]: 159 | Population [1]: 0.00925%
Sequence: DFLLTILEAMKTKNQL

Rank (after) [2]: 465 | Rank (before) [3]: 2370
Sequence: DFRSHLIETFGRMFIN

P8_MyD88 Rank (after) [12]: 551 | P8_MyD88 Rank (before) [13]: 2728
Sequence: DPQDLAWFSERLVSQF

P3_MyD88 Rank (after) [6]: 718 | P3_MyD88 Rank (before) [7]: 3399
Sequence: NELVHVWSSKANIRVC

P3_MyD88 Rank (after) [12]: 509 | P3_MyD88 Rank (before) [13]: 3216
Sequence: SSFREGPWRLLALSKK

P8_MyD88 Rank (after) [12]: 568 | P8_MyD88 Rank (before) [13]: 1849
Sequence: YASSWWALEELLRILY

Rank (after) [4]: 109 | Rank (before) [5]: 1305
Sequence: KEVEGWRDALTKVACR

Rank (after) [2]: 393 | Rank (before) [3]: 2837
Sequence: DPQDLDGCYERLVSLF

P8_MyD88 Rank (after) [8]: 667 | P8_MyD88 Rank (before) [9]: 2991
Sequence: DPQELECLYERLFSQM

Population [16]: 0.00437%
Sequence: LKWGDPWFWDRLRFA

P3_MyD88 Rank (after) [10]: 211 | P3_MyD88 Rank (before) [11]: 1126
Sequence: PSEVRVVDDGSVSPLEM

P8_MyD88 Rank (after) [8]: 674 | P8_MyD88 Rank (before) [9]: 2170
Sequence: VANILGYHCKGWENFV

P8_MyD88 Rank (after) [10]: 250 | P8_MyD88 Rank (before) [11]: 1186
Sequence: LGYQWIEWEYFVGIED

P3_MyD88 Rank (after) [10]: 256 | P3_MyD88 Rank (before) [11]: 3525
Sequence: NQWRNAQTAAANLNGW

P8_MyD88 Rank (after) [12]: 562 | P8_MyD88 Rank (before) [13]: 3042
Sequence: DPKALQWFYERLVSLI

Population [1]: 0.0116%
Sequence: WALDELLKILDAKETM

Rank (after) [14]: 1012 | Rank (before) [15]: 2747
Sequence: DPQDLDWFSERLVILF

P3_MyD88 Rank (after) [10]: 248 | P3_MyD88 Rank (before) [11]: 1503
Sequence: YAFTGHLHRYLVPRGL

P3_MyD88 Rank (after) [12]: 530 | P3_MyD88 Rank (before) [13]: 3474
Sequence: NQWRSSPTAWASLSFA

P8_MyD88 Rank (after) [6]: 710 | P8_MyD88 Rank (before) [7]: 1778
Sequence: YASYDDNDYYWLTNVLLRLL

P3_MyD88 Rank (after) [8]: 662 | P3_MyD88 Rank (before) [9]: 3685
Sequence: KEPENYRFALHERDFP

P3_MyD88 Rank (after) [8]: 612 | P3_MyD88 Rank (before) [9]: 2460
Sequence: LKCCYPYFWSKLRYAM

P8_MyD88 Rank (after) [6]: 749 | P8_MyD88 Rank (before) [7]: 1673
Sequence: YYDSRWALDELWLILEQR

Rank (after) [2]: 174 | Rank (before) [3]: 197
Sequence: EGFTGFLYEALTRYGI

P8_MyD88 Rank (after) [8]: 596 | P8_MyD88 Rank (before) [9]: 2212
Sequence: VQCGDPWCWEKLAYAM

P3_MyD88 Rank (after) [8]: 595 | P3_MyD88 Rank (before) [9]: 1975
Sequence: AWIREQLRTALKERPP

Population [1]: 0.00886%
Sequence: DPQDLVWFYERLVSLF

Rank (after) [4]: 161 | Rank (before) [5]: 676
Sequence: LVAHEITPSLFKAIKE

Source: paper PMC11714206, “Massively Parallel Screening of Toll/Interleukin‐1 Receptor (TIR)‐Derived Peptides Reveals Multiple Toll‐Like Receptors (TLRs)‐Targeting Immunomodulatory Peptides” (Advanced Science, 2024)
